Counter-ions that a name gives are not always drawn. Like-named read-outs stand apart in the source and are kept apart here.
Experiments:
male Sprague-Dawley rats = assay: in vivo screen APCC: blood cholesterol in rats after one night on a high fat, high cholesterol diet (PCC); details: blood cholesterol vs vehicle (CMC/Tween), dosed at 4 PM, PCC diet containing 0.5% cholic acid overnight, sacrificed at 8 AM, dose not given
Description: In one in vivo screen designated APCC, male Sprague-Dawley rats (200 to 225 g) were randomly divided into treatment groups and dosed at 4 PM with either vehicle (CMC/Tween) or suspensions of compounds in vehicle. The normal chow diet was then replaced with a high fat, high cholesterol diet (designated PCC) containing 0.5% cholic acid. The rats consumed this diet ad libitum during the night and were sacrificed at 8 AM to obtain blood samples for cholesterol analysis using standard procedures. Statistical differences between mean cholesterol values for the same vehicle were determined using analysis of variance followed by Fisher's least significant test.

[1] = biological target: acyl-CoA: cholesterol acyltransferase (ACAT); assay: in vitro ACAT inhibition test (IAI): formation of radiolabeled cholesterol oleate from radiolabeled oleic acid in intestinal microsomes; format: biochemical; details: tissue preparation containing rabbit intestinal microsomes, concentration required to inhibit the activity of the enzyme by 50%, read-out: IAI IC₅₀
Method: The ability of representative compounds of the present invention to inhibit ACAT was measured using an in vitro test more fully described in F. J. Field and R. G. Salone, Biochemica et Biophysica 712:557-570 (1982). The test assesses the ability of a test compound to inhibit the acylation of cholesterol by oleic acid by measuring the amount of radiolabeled cholesterol oleate formed from radiolabeled oleic acid in a tissue preparation containing rabbit intestinal microsomes.
The data appear in Table 1 where they are expressed in IC₅₀ values; i.e., the concentration of test compound required to inhibit the activity of the enzyme by 50%.

Row | Compound | % Change (mg/dl) (male Sprague-Dawley rats) | IC50 [1] [µM] | other results
1 | CC(C)(C)c1cccc(C(C)(C)C)c1OC(=O)NS(=O)(=O)Oc1c(C(C)(C)C)cccc1C(C)(C)C [Example 26, 2,6-Bis(1,1-dimethylethyl)phenyl[(2,6-bis(1,1-dimethylethyl)phenoxy)sulfonyl]carbamate] | -18% |  | 
2 | COc1cccc(OC)c1OC(=O)NS(=O)(=O)Oc1c(OC)cccc1OC [Example 25, 2,6-dimethoxyphenyl[(2,6-dimethoxyphenoxy)sulfonyl]carbamate] | -10% |  | 
3 | COC(=O)NS(=O)(=O)Oc1c(C(C)C)cccc1C(C)C [Example 6, Methyl[[2,6-bis(1-methylethyl)phenoxy]sulfonyl]carbamate] |  | > 100 | 
4 | COc1cccc(OC)c1OS(=O)(=O)NC(=O)Oc1c(C(C)C)cccc1C(C)C [Example 19, 2,6-Bis(1-methylethyl)phenyl[(2,6-dimethoxyphenoxy)sulfonyl]carbamate] | -70% |  | 
5 | Cc1cccc(C)c1OS(=O)(=O)NC(=O)Oc1c(C(C)C)cccc1C(C)C [Example 18, 2,6-Bis(1-methylethyl)phenyl[(2,6-dimethylphenoxy)sulfonyl]carbamate] | -58% |  | 
6 | CC(C)c1cccc(C(C)C)c1OC(=O)NS(=O)(=O)Oc1c(F)cccc1F [Example 22] | +9% | 38 | 
7 | CCCCCCOS(=O)(=O)NC(=O)Oc1c(C(C)(C)C)cc(C)cc1C(C)(C)C [Example 3, 2,6-Bis(1,1-dimethylethyl)-4-methylphenyl[(hexyloxy)sulfonyl]carbamate] | -56% |  | 
8 | CCCCCCOS(=O)(=O)NC(=O)Oc1c(C(C)C)cccc1C(C)C [Example 7, 2,6-Bis(1-methylethyl)phenyl[(hexyloxy)sulfonyl]carbamate] | -52% |  | 
9 | CC(C)c1cccc(C(C)C)c1OC(=O)NS(=O)(=O)Oc1c(C(C)C)cccc1C(C)C [Example 1, 2,6-Bis(1-methylethyl)phenyl[[2,6-bis(1-methylethyl)phenoxy]sulfonyl]carbamate] | -70% |  | 
10 | CC(C)c1cccc(C(C)C)c1OC(=O)NS(=O)(=O)Oc1c(C(C)C)cccc1C(C)C [Example 27, 2,6-bis(1-methylethyl)phenyl[[2,6-bis(1-methylethyl)phenoxylsulfonyl]carbamate, 2-hydroxy-N,N,N-trimethylethanaminium salt] | -72% | 3.3 | 
11 | CC(C)c1cccc(C(C)C)c1OS(=O)(=O)NC(=O)Oc1c(C(C)(C)C)cccc1C(C)(C)C [Example 9, 2,6-Bis(1,1-dimethylethyl)phenyl[[2,6-bis(1-methylethyl)phenoxy]sulfonyl]carbamate] | -70% |  | 
12 | CC(C)c1cccc(C(C)C)c1OC(=O)NS(=O)(=O)Oc1c(C(C)(C)C)cccc1C(C)(C)C [Example 24, 2,6-Bis(1-methylethyl)phenyl[[2,6-bis(1,1-dimethylethyl)phenoxy]sulfonyl]carbamate] | -55% |  | 
13 | CCCCCCCCCCCCOC(=O)NS(=O)(=O)Oc1c(C(C)C)cccc1C(C)C [Example 5, Dodecyl [[2,6-bis(1-methylethyl)phenoxy]sulfonyl]carbamate] | -62% | 13 | 
14 | CC(C)c1cccc(C(C)C)c1OC(=O)NS(=O)(=O)Oc1ccccc1 [Example 17, 2,6-Bis(1-methylethyl)phenyl(phenoxysulfonyl)carbamate] | -26% |  | 
15 | CCCCCCCCCCCCOS(=O)(=O)NC(=O)Sc1c(C(C)C)cccc1C(C)C [Example 30, S-[2,6-bis(1-methylethyl)phenyl][(dodecyloxy)sulfonyl]carbamothioate] | -9% |  | 
16 | CCCCCCCCCCCCCCCCOS(=O)(=O)NC(=O)Oc1c(C(C)C)cccc1C(C)C [Example 23, 2,6-Bis(1-methylethyl)phenyl[(hexadecyloxy)sulfonyl]carbamate] | -59% |  | 
17 | CC(C)c1cccc(C(C)C)c1OC(=O)N(C)S(=O)(=O)Oc1c(C(C)C)cccc1C(C)C [Example 31, 2,6-bis(1-methylethyl)phenyl[[2,6-bis(1-methylethyl)phenoxylsulfonyl]methyl carbamate] | -64% | 63 | 
18 | CCCCCCCCCCCCOS(=O)(=O)NC(=O)Oc1c(-c2ccccc2)cccc1-c1ccccc1 [Example 10, [1,1':3',1''-Terphenyl]-2'-yl[(dodecyloxy)sulfonyl]carbamate] | -69% | > 10 | 
19 | CC(C)c1cccc(C(C)C)c1OC(=O)NS(=O)(=O)Oc1c(C(C)C)cccc1C(C)C [Example 28, 2,6-bis(1-methylethyl)phenyl[[2,6-bis(1-methylethyl)phenoxy]sulfonyl]carbamate, monosodium salt] |  |  | IC50 ([1]; monosodium salt): 5.2 µM; % Change (mg/dl) (male Sprague-Dawley rats; monosodium salt): -65%
20 | CC(C)c1cccc(C(C)C)c1OC(=O)NS(=O)(=O)Oc1ccc(F)cc1F [Example 20] | -11% | 50 | 
21 | COc1cc(OC)c(OS(=O)(=O)NC(=O)Oc2c(C(C)C)cccc2C(C)C)c(OC)c1 [Example 21, 2,6-Bis(1-methylethyl)phenyl[(2,4,6-trimethoxyphenoxy)sulfonyl]carbamate] | -61% |  | 
22 | CCCCCCCCCCCCOS(=O)(=O)NC(=O)Oc1c(C(C)(C)C)cc(C)cc1C(C)(C)C [Example 4] | -65% | 52 | 
23 | CCCCCCCCCCCCOS(=O)(=O)NC(=O)Oc1c(C(C)C)cccc1C(C)C [Example 8] | -68% | 13 | 
24 | Cc1cc(C(C)(C)C)c(OC(=O)NS(=O)(=O)Oc2ccccc2)c(C(C)(C)C)c1 [Example 2, 2,6-Bis(1,1-dimethylethyl)-4-methylphenyl(phenoxysulfonyl)carbamate] | -65% |  | 

— patent publication EP0555351B1, “OXYSULFONYL CARBAMATES” (WARNER-LAMBERT COMPANY, priority 1990, dated 1992)
